This is an account of results in US20240287080A1 (IDEAYA Biosciences Inc., priority 2021, published 2024).

T1 sequence (O75417 1-899): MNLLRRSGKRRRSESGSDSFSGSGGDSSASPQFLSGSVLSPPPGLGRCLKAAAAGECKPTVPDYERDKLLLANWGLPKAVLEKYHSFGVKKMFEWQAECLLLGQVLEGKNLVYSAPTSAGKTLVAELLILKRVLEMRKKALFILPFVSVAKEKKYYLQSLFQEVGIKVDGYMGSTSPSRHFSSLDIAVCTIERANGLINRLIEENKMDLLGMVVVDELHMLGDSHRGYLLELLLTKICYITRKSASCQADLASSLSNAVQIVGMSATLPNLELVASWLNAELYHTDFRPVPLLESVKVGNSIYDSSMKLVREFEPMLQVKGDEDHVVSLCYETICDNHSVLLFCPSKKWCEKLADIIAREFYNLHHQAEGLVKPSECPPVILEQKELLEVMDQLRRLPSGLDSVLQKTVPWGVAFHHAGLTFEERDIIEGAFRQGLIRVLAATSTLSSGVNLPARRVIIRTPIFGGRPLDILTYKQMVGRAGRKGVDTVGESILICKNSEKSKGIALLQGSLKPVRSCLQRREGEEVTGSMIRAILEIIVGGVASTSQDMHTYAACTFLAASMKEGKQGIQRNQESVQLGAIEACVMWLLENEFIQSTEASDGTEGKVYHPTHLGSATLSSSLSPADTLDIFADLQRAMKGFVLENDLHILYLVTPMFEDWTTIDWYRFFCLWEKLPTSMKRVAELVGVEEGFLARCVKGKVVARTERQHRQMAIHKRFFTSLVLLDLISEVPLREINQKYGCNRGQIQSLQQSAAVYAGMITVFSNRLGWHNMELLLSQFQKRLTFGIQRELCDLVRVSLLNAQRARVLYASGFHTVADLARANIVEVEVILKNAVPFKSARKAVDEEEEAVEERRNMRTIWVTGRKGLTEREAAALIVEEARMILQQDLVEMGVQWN

The assay addresses T1, Pol theta (1-899) (Homo sapiens, UniProt O75417).
T1 construct: Pol theta (1-899) (5 nM) in assay buffer
Description: Pol theta ATPase activity, NADH oxidation-coupled enzymatic assay (ATPase NADH coupling: Standard Screening: hPolQ). To be noted: Table 5; Pol theta (1-899) 5 nM, ATP, dT50 ssDNA. Type of assay: biochemical. As to the method: The ability of the compounds of Formula (I) or Table 1 to inhibit ATPase activity of Pol theta (1-899) was determined using the assay described below. Pol Theta ATPase activity was determined by measuring the rate of ATP turn over in a NADH oxidation-coupled enzymatic assay. 10-point dilution series of compounds were used in a 384 well format for the inhibition assays. Pol theta (1-899) (5 nM) in assay buffer (20 mM Tris HCl (pH 7.80), 80 mM KCl, 10 mM MgCl2, 1 mM DTT, 0.01% BSA, 0.01% Tween, 5% glycerol) was transferred to the test wells (20 μL), except the low control wells (20 μL of assay buffer was added to the low control wells). The plate was then incubated at room temperature for 15 min. An equal volume (20 μL) of 100 μM ATP, 300 nM […] (single-stranded DNA (ssDNA) containing 50 thymine bases), 300 μM NADH, 6 mM PEP, 10 U/mL lactate dehydrogenase and 20 U/mL pyruvate kinase in assay buffer was added to all the test wells. The plate was then centrifuged at 1000 rpm for 1 min. The reaction was monitored for 60 min by measuring absorbance (λ=340 nm) in a Tecan Spark multimode plate reader every minute. The high control (DMSO with enzyme) with low absorbance intensity represents no inhibition of ATPase reaction while the low control (DMSO with buffer) with high absorbance intensity represents full inhibition of ATPase activity. Slope of the reaction progress curves were used to calculate the rate of ATP hydrolysis. The rates were used to determine the percent inhibition using a four-parameter inhibition model to generate IC50, Hill slope and max inhibition.
Compound `COc1cnc(Cl)cc1-c1cc(C)ncc1C(=O)Nc1nnc(O[C@H]2COC(C)(C)C2)s1` (single isomer, unassigned) [Example 131] had an IC50 not above 200 nM.

In turn, `COc1cnc(Cl)cc1-c1cc(C)ncc1C(=O)Nc1nnc(O[C@H]2C[C@@H](OC)C2)s1` (single isomer, unassigned) [Example 132, 2′-chloro-5′-methoxy-N-(5-((1s,3s)-3-methoxycyclobutoxy)-1,3,4-thiadiazol-2-yl)-6-methyl-(4,4′-bipyridine)-3-carboxamide] showed an IC50 not above 200 nM.

Turning to `COc1cnc(Cl)cc1-c1cc(C)ncc1C(=O)Nc1nnc(O[C@H]2C[C@H](OC)C2)s1` (single isomer, unassigned) [Example 133, 2′-chloro-5′-methoxy-N-(5-((1r,3r)-3-methoxycyclobutoxy)-1,3,4-thiadiazol-2-yl)-6-methyl-(4,4′-bipyridine)-3-carboxamide], the IC50 was not above 200 nM.

For `COc1cnc(Cl)cc1-c1cc(C)ncc1C(=O)Nc1nnc(O[C@H]2CCC23COC3)s1` (single isomer, unassigned) [Example 136], the IC50 was not above 200 nM.

Regarding `COc1cnc(Cl)cc1-c1cc(C)ncc1C(=O)Nc1nnc(O[C@@H]2CCC23COC3)s1` (single isomer, unassigned) [Example 137], the IC50 was not above 200 nM.

In turn, `COc1cnc(Cl)cc1-c1cc(C)ncc1C(=O)Nc1nnc(O[C@@]2(C)CCOC2)s1` (single isomer, unassigned) [Example 138] gave an IC50 not above 200 nM.

Turning to `COc1cnc(Cl)cc1-c1cc(C)ncc1C(=O)Nc1nnc(O[C@]2(C)CCOC2)s1` (single isomer, unassigned) [Example 139], the IC50 lay within 200 to 500 nM.

For the compound `COc1cnc(Cl)cc1-c1cc(C)ncc1C(=O)Nc1nnc(O[C@H]2CC[C@](C)(O)CC2)s1` (single isomer, unassigned) [Example 140, 2′-chloro-N-(5-(((1r,4r)-4-hydroxy-4-methylcyclohexyl)oxy)-1,3,4-thiadiazol-2-yl)-5′-methoxy-6-methyl-(4,4′-bipyridine)-3-carboxamide], the IC50 was not above 200 nM.

`COc1cnc(Cl)cc1-c1cc(C)ncc1C(=O)Nc1nnc(O[C@H]2CC[C@@](C)(O)CC2)s1` (single isomer, unassigned) [Example 141, 2′-chloro-N-(5-(((1s,4s)-4-hydroxy-4-methylcyclohexyl)oxy)-1,3,4-thiadiazol-2-yl)-5′-methoxy-6-methyl-(4,4′-bipyridine)-3-carboxamide] came in with an IC50 not above 200 nM.

Compound `COc1cnc(Cl)cc1-c1cc(C)ncc1C(=O)Nc1nnc(O[C@H]2CCC[C@@H](OC)C2)s1` (single isomer, unassigned) [Example 145] came in with an IC50 not above 200 nM.

`COc1cnc(Cl)cc1-c1cc(C)ncc1C(=O)Nc1nnc(O[C@@H]2CCC[C@H](OC)C2)s1` (single isomer, unassigned) [Example 146]: the IC50 is not above 200 nM.

Compound `COc1cnc(Cl)cc1-c1cc(C)ncc1C(=O)Nc1nnc(O[C@H]2CCC[C@H](OC)C2)s1` (single isomer, unassigned) [Example 147] returned an IC50 not above 200 nM.

The compound `COc1cnc(Cl)cc1-c1cc(C)ncc1C(=O)Nc1nnc(O[C@@H]2CCC[C@@H](OC)C2)s1` (single isomer, unassigned) [Example 148] yielded an IC50 not above 200 nM.

On to `COc1cnc(Cl)c(F)c1-c1cc(C)ncc1C(=O)Nc1nnc(O[C@H]2C[C@H](OC)C2)s1` (single isomer, unassigned) [Example 151, 2′-chloro-3′-fluoro-5′-methoxy-N-(5-((1r,3r)-3-methoxycyclobutoxy)-1,3,4-thiadiazol-2-yl)-6-methyl-(4,4′-bipyridine)-3-carboxamide], for which the IC50 is not above 200 nM.

In turn, `COc1cnc(Cl)c(F)c1-c1cc(C)ncc1C(=O)Nc1nnc(O[C@H]2CC[C@@H](OC)CC2)s1` (single isomer, unassigned) [Example 152, 2′-chloro-3′-fluoro-5′-methoxy-N-(5-(((1s,4s)-4-methoxycyclohexyl)oxy)-1,3,4-thiadiazol-2-yl)-6-methyl-(4,4′-bipyridine)-3-carboxamide] returned an IC50 not above 200 nM.

As for `COc1cnc(Cl)c(F)c1-c1cc(C)ncc1C(=O)Nc1nnc(O[C@H]2CC[C@H](OC)CC2)s1` (single isomer, unassigned) [Example 153, 2′-chloro-3′-fluoro-5′-methoxy-N-(5-(((1r,4r)-4-methoxycyclohexyl)oxy)-1,3,4-thiadiazol-2-yl)-6-methyl-(4,4′-bipyridine)-3-carboxamide], the IC50 was not above 200 nM.

Consider `COc1cnc(Cl)c(F)c1-c1cc(C)ncc1C(=O)Nc1nnc(O[C@H]2CCC[C@@H](O)C2)s1` (single isomer, unassigned) [Example 154], for which the IC50 was not above 200 nM.

Compound `COc1cnc(Cl)c(F)c1-c1cc(C)ncc1C(=O)Nc1nnc(O[C@@H]2CCC[C@H](O)C2)s1` (single isomer, unassigned) [Example 155] had an IC50 not above 200 nM.

Compound `COc1cnc(Cl)c(F)c1-c1cc(C)ncc1C(=O)Nc1nnc(O[C@H]2CCC[C@H](O)C2)s1` (single isomer, unassigned) [Example 156] yielded an IC50 not above 200 nM.

`COc1cnc(Cl)c(F)c1-c1cc(C)ncc1C(=O)Nc1nnc(O[C@@H]2CCC[C@@H](O)C2)s1` (single isomer, unassigned) [Example 157] came in with an IC50 not above 200 nM.

`COc1cnc(Cl)cc1-c1cc(C)ncc1C(=O)Nc1nnc(O[C@H]2CCC[C@@H](O)C2)s1` (single isomer, unassigned) [Example 159]: the IC50 is not above 200 nM.

Take `COc1cnc(Cl)cc1-c1cc(C)ncc1C(=O)Nc1nnc(O[C@@H]2CCC[C@H](O)C2)s1` (single isomer, unassigned) [Example 160]: the half-maximal inhibitory concentration (IC50) was not above 200 nM.

`COc1cnc(Cl)cc1-c1cc(C)ncc1C(=O)Nc1nnc(O[C@H]2CCC[C@H](O)C2)s1` (single isomer, unassigned) [Example 161]: the IC50 was not above 200 nM.

For the compound `COc1cnc(Cl)cc1-c1cc(C)ncc1C(=O)Nc1nnc(O[C@@H]2CCC[C@@H](O)C2)s1` (single isomer, unassigned) [Example 162], the IC50 was not above 200 nM.

The compound `COc1cnc(Cl)c(F)c1-c1cc(C)ncc1C(=O)Nc1nnc(O[C@H]2CCO[C@H]2C)s1` (single isomer, unassigned) [Example 164] yielded an IC50 not above 200 nM.

With `COc1cnc(Cl)c(F)c1-c1cc(C)ncc1C(=O)Nc1nnc(O[C@H]2CCO[C@@H]2C)s1` (single isomer, unassigned) [Example 165], the IC50 is not above 200 nM.

In the case of `COc1cnc(Cl)c(F)c1-c1cc(C)ncc1C(=O)Nc1nnc(O[C@@H]2CCO[C@@H]2C)s1` (single isomer, unassigned) [Example 166], the IC50 was not above 200 nM.

In the case of `COc1cnc(Cl)c(F)c1-c1cc(C)ncc1C(=O)Nc1nnc(O[C@@H]2CCO[C@H]2C)s1` (single isomer, unassigned) [Example 167], the IC50 was not above 200 nM.

Turning to `COc1cnc(Cl)c(F)c1-c1cc(C)ncc1C(=O)Nc1nnc(O[C@H]2CC[C@@](C)(O)CC2)s1` (single isomer, unassigned) [Example 171, 2′-chloro-3′-fluoro-N-(5-(((1s,4s)-4-hydroxy-4-methylcyclohexyl)oxy)-1,3,4-thiadiazol-2-yl)-5′-methoxy-6-methyl-(4,4′-bipyridine)-3-carboxamide], the IC50 is not above 200 nM.

For orientation: IC50 means the concentration needed to halve the response being measured. A low value points to greater potency.
